Experimental data published in BindingDB's records for doi:10.1016/S1074-5521(01)00079-5 (State University of New York, 2001).

Biological target: HIV-1 protease (Human immunodeficiency virus, UniProt O90785)
Test: Enzyme Inhibition Assay

Sequence of HIV-1 protease (O90785 whole entry): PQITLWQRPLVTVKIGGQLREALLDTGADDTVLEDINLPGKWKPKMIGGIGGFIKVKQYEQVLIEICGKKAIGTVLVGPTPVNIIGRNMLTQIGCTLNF

| Ki [µM] | Compound |
| --- | --- |
| 3.2 | O=C(NCc1ccccc1)[C@H](Cc1ccccc1)CC(O)C[C@@H](Cc1ccccc1)C(=O)NCc1ccccc1 [Carbinol, 18a] |
| 0.0038 | O=C(NC1c2ccccc2CC1O)[C@H](Cc1ccccc1)CC(O)C[C@@H](Cc1ccccc1)C(=O)NC1c2ccccc2CC1O (stereo partly drawn) [Carbinol, 18b] |

| Compound | Ki [µM] |
| --- | --- |
| O=C(NCc1ccccc1)[C@H](Cc1ccccc1)C[Si](O)(O)C[C@@H](Cc1ccccc1)C(=O)NCc1ccccc1 [Silanediol, 17a] | 3.2 |
